Results reported in patent publication US9810687B2, “Nanocomposites and methods of making same” (BOARD OF TRUSTEES OF THE UNIVERSITY OF ARKANSAS, priority 2013, dated 2017).

Columns and labels:
MCF-7 = experiment: Cytotoxicity of GA delivered by Gn and SWCNT, breast cancer cells; assay type: cell-based, human; details: breast cancer cells in vitro
Method: (§1) In this example, Gn and SWCNT were used to deliver the natural low-toxicity drug GA to breast and pancreatic cancer cells in vitro, and the effectiveness of this complex in suppressing cellular integrity was assessed. Cytotoxicity was assessed by measuring lactate dehydrogenase release, mitochondria dehydrogenase activity, mitochondrial membrane depolarization, DNA fragmentation, intracellular lipid content, and membrane permeability/caspase activity. […] This analysis represents a first step toward assessing their effectiveness in more complex, targeted, nanodelivery systems.
(§2) Gn and SWCNT (10 μg/ml) were mixed with GA (0.5, 0.75 and 1 μg/ml) to be described as GA+Gn and GA+SWCNT. First, the samples were vortexed at a high speed for at least 4 h to allow the drug to bind to the nanomaterials via π-π stacking. […] The loading concentrations of the GA on Gn and SWCNT were determined by UV-Vis absorbance at 360 nm measured using a Shimadzu UV-3600 spectrophotometer (Shimadzu Scientific Instruments, Colombia, Me., USA).
(§3) The amount of drug loaded was calculated by peak absorbance at 360 nm after subtracting the background of absorbance from Gn and SWCNT. It is determined that, after vortexing, 98% of the free GA was bound to the Gn (GA−Gn=0.98: 10 μg/ml) and that 88% was bound to the SWCNT (GA−SWCNT=0.88: 10 μg/ml).

Panc-1 = experiment: Cytotoxicity of GA delivered by Gn and SWCNT, pancreatic cancer cells; assay type: cell-based, human; details: pancreatic cancer cells in vitro
Method: as §1, §2, §3

[1] = system: human pancreatic cancer cell line Panc-1; experiment: Anticancer/apoptotic effects of PTL, DMAPT and their fGn complexes; details: drug alone or as mixture with fGn
Method: A water-soluble PTL analog, dimethylaminoparthenolide (DMAPT), was also examined for comparison with the anticancer efficacy of our PTL-fGn complex.
PTL was obtained from Sigma-Aldrich (USA). […] PTL and DMAPT were dissolved in DMSO to create 10 mM stock solutions. To create the PTL-fGn and DMAPT-fGn complexes, the drug was added to fGn solution in media (final drug-fGn complex concentrations were 1, 10, 20, 30, 50, and 100 mM drug and 10 mg/ml fGn), sonicated for 1 h, and then stored at 4° C. before being incubated with cancer cell, such as, Panc-1 cells, or being delivered to a patient.

| SMILES | antiproliferative effects upon nanodelivery (MCF-7) | antiproliferative effects upon nanodelivery (Panc-1) | IC50 [1] |
| --- | --- | --- | --- |
| CC(C)=CCC[C@]1(C)C=Cc2c(O)c3c(c(CC=C(C)C)c2O1)O[C@]12C(=C[C@@H]4C[C@H]1C(C)(C)O[C@@]2(C/C=C(/C)C(=O)O)C4=O)C3=O [GA, Gambogic Acid] | significantly enhanced | significantly enhanced | – |
| C/C1=C\CC[C@@]2(C)O[C@@H]2[C@H]2OC(=O)[C@H](CN(C)C)[C@@H]2CC1 [DMAPT, dimethylaminoparthenolide] | – | – | significantly higher than that for PTL-fGn |
